# Target: HDAC enzyme
# Experiment: Inhibition of Histone Deacetylase Enzymatic Activity (Assay Examples 1 and 2)
# Format: biochemical
# Details: HDAC isoform not specified; fluorogenic Boc-Lys(Ac)-AMC or Boc-Lys(trifluoroacetyl)-AMC substrate
# Procedure: The following protocol is used to assay the compounds of the invention. In the assay, the buffer used is 25 mM HEPES, pH 8.0, 137 mM NaCl, 2.7 mM KCl, 1 mM MgCl2 and the subtrate is Boc-Lys(Ac)-AMC in a 50 mM stock solution in DMSO. The enzyme stock solution is 4.08 μg/mL in buffer.
# The compounds are pre-incubated (2 μl in DMSO diluted to 13 μl in buffer for transfer to assay plate) with enzyme (20 μl of 4.08 μg/ml) for 10 minutes at room temperature (35 μl pre-incubation volume). The mixture is pre-incubated for 5 minutes at room temperature. The reaction is started by bringing the temperature to 37° C. and adding 16 μl substrate. Total reaction volume is 50 μl. The reaction is stopped after 20 minutes by addition of 50 μl developer, prepared as directed by Biomol (Fluor-de-Lys developer, Cat. #KI-105). A plate is incubated in the dark for 10 minutes at room temperature before reading (λEx=360 nm, λEm=470 nm, Cutoff filter at 435 nm).
# Alternatively, HDAC inhibitory activity was determined using the following assay.
# A 30 mM stock of Boc-Lys(trifluoroacetyl)-AMC substrate is prepared in DMSO. 2 μL of test compound in DMSO is diluted to 50 μL in buffer (25 mM HEPES, pH 8.0, 137 mM NaCl, 2.7 mM KCl, 1 mM MgCl2, 0.1% BSA) and pre-incubated with HDAC enzyme (30 μL of a final enzyme concentration of 0.1-0.2 nM) for 10 minutes at room temperature. Reaction is started by adding 18 μL Boc-Lys(trifluoroacetyl)-AMC substrate and incubating at 37° C. for 20-30 minutes. The reaction is stopped by adding 50 μL trypsin (1 mg/mL) and a known HDAC inhibitor (such as LAQ-824). The plate is then incubated in the dark for 20 minutes at room temperature and read with Ex=360 nm, Em=470 nm, cutoff filter at 435 nm.
# In the table, A≦0.2 μM; 0.2 μM<B≦0.5 μM; […]; and 1 μM<D≦6 μM.
row,Structure (SMILES),IC50
1,"NS(=O)(=O)NCCCC[C@H](NC(=O)OCc1ccccc1)C(=O)Nc1nc(-c2ccccc2)cs1 [Compound 60, (S)-benzyl 1-oxo-1-(4-phenylthiazol-2-ylamino)-6-(sulfamoyl-amino)-hexan-2-ylcarbamate]",≤ 200 nM
2,"COc1cc(NC(=O)CCCCCNS(N)(=O)=O)c2ncccc2c1 [Compound 40, N-(6-methoxy-quinolin-8-yl)-6-(sulfamoyl-amino)-hexanamide]",≤ 200 nM
3,"COc1ccc(C(=O)N[C@@H](CCCCNS(N)(=O)=O)C(=O)Nc2cccc3cccnc23)cc1OC [Compound 207, (S)-3,4-dimethoxy-N-(1-oxo-1-(quinolin-8-ylamino)-6-(sulfamoyl-amino)hex-an-2-yl)-benzamide]",200 to 500 nM
4,"NS(=O)(=O)NCCCC[C@H](NC(=O)OCc1ccccc1)C(=O)Nc1cnc2ccccc2c1 [Compound 274, (S)-benzyl 1-oxo-1-(quinolin-3-ylamino)-6-(sulfamoyl-amino)-hexan-2-ylcarbamate]",≤ 200 nM
5,"NS(=O)(=O)NCCCC[C@H](NC(=O)NCc1ccccc1)C(=O)Nc1cccc2cccnc12 [Compound 203, (S)-2-(3-benzylureido)-N-(quinolin-8-yl)-6-(sulfamoylamino)hexanamide]",200 to 500 nM
6,"NS(=O)(=O)NCCCC[C@H](NC(=O)NCc1ccc(F)cc1)C(=O)Nc1nc(-c2ccccc2)cs1 [Compound 240, (S)-2-(3-(4-fluoro-benzyl)-ureido)-N-(4-phenyl-thiazol-2-yl)-6-(sulfa-moylamino)-hexanamide]",200 to 500 nM
7,"NS(=O)(=O)NCCCC[C@H](NC(=O)OCc1ccccc1)C(=O)Nc1nc(-c2ccc(F)cc2)cs1 [Compound 318, (S)-benzyl 1-(4-(4-fluoro-phenyl)-thiazol-2-ylamino)-1-oxo-6-(sulfamoyl-amino)-hexan-2-ylcarbamate]",200 to 500 nM
8,"COc1ccc2[nH]c(C)c(CC(=O)N[C@@H](CCCCNS(N)(=O)=O)C(=O)Nc3cccc4cccnc34)c2c1 [Compound 62, (S)-2-(2-(5-methoxy-2-methyl-1H-indol-3-yl)acetamido)-N-(quinolin-8-yl)-6-(sulfamoyl-amino)-hexanamide]",200 to 500 nM
9,"NS(=O)(=O)NCCCCCC(=O)Nc1cc(OCc2ccccn2)cc2cccnc12 [Compound 79, N-(6-(pyridin-2-ylmethoxy)-quinolin-8-yl)-6-(sulfa-moylamino)-hexanamide]",≤ 200 nM
10,"CC(=O)N[C@@H](CCCCNS(N)(=O)=O)C(=O)Nc1cccc2cccnc12 [Compound 34, (S)-2-Acetamido-N-(quinolin-8-yl)-6-(sulfamoylamino)hexanamide]",≤ 200 nM
11,"NS(=O)(=O)NCCCC[C@H](NC(=O)OCc1ccccc1)c1n[nH]c(-c2ccccc2)n1 [Compound 335, (S)-benzyl 1-(5-phenyl-1H-1,2,4-triazol-3-yl)-5-(sulfamoylamino)pentylcarbamate]",≤ 200 nM
12,"NS(=O)(=O)NCCCC[C@H](NC(=O)OCc1cccc(Cl)c1)C(=O)Nc1nc(-c2ccccc2)cs1 [Compound 242, (S)-3-chlorobenzyl 1-oxo-1-(4-phenyl-thiazol-2-ylamino)-6-(sulfa-moylamino)-hexan-2-ylcarbamate]",≤ 200 nM
13,"COC(=O)N[C@@H](CCCCNS(N)(=O)=O)C(=O)Nc1nc(-c2ccccc2)cs1 [Compound 319, (S)-methyl 1-oxo-1-(4-phenyl-thiazol-2-ylamino)-6-(sulfamoyl-amino)-hexan-2-ylcarbamate]",≤ 200 nM
14,"NS(=O)(=O)NCCCC[C@H](NC(=O)OCc1ccccc1)c1csc(-c2ccc(Br)cc2)n1 [Compound 361, (S)-benzyl 1-(2-(4-bromo-phenyl)-thiazol-4-yl)-5-(sulfamoyl-amino)-pentyl-carbamate]",200 to 500 nM
15,"COc1ccc(-c2nc(NC(=O)[C@H](CCCCNS(N)(=O)=O)NC(=O)OCc3ccccc3)sc2C)cc1 [Compound 289, (S)-benzyl 1-(4-(4-methoxy-phenyl)-5-methyl-thiazol-2-ylamino)-1-oxo-6-(sulfamoyl-amino)-hexan-2-ylcarbamate]",200 to 500 nM
16,"NS(=O)(=O)NCCCC[C@H](NC(=O)c1cc2ccccc2o1)C(=O)Nc1cccc2cccnc12 [Compound 51, (S)-N-(1-oxo-1-(quinolin-8-ylamino)-6-(sulfamoyl-amino)-hexan-2-yl)-benzofuran-2-carboxamide]",200 to 500 nM

row,Structure (SMILES),IC50
1,"NS(=O)(=O)NCCCC[C@H](NC(=O)OCc1ccccc1)c1csc(Nc2ccccc2)n1 [Compound 364, (S)-benzyl 1-(2-(phenyl-amino)-thiazol-4-yl)-5-(sulfamoyl-amino)-pentyl-carbamate]",500 to 1000 nM
2,"COc1cccc(-c2csc(NC(=O)[C@H](CCCCNS(N)(=O)=O)NC(=O)OCc3ccccc3)n2)c1 [Compound 309, (S)-benzyl 1-(4-(3-methoxy-phenyl)-thiazol-2-ylamino)-1-oxo-6-(sulfamoyl-amino)-hexan-2-ylcarbamate]",200 to 500 nM
3,"COc1cc(NC(=O)[C@H](CCCCNS(N)(=O)=O)NC(=O)OCc2ccccc2)c2ncccc2c1 [Compound 270, (S)-benzyl 1-(6-methoxy-quinolin-8-ylamino)-1-oxo-6-(sulfamoyl-amino)-hexan-2-ylcarbamate]",≤ 200 nM
4,"NS(=O)(=O)NCCCC[C@H](NC(=O)OCc1ccccc1)C(=O)Nc1nc(-c2ccc(C(F)(F)F)cc2)cs1 [Compound 308, (S)-benzyl 1-oxo-6-(sulfamoyl-amino)-1-(4-(4-(trifluoro-methyl)-phenyl)-thiazol-2-ylamino)-hexan-2-ylcarbamate]",≤ 200 nM
5,"COc1ccc(NC(=O)c2csc(NC(=O)[C@H](CCCCNS(N)(=O)=O)NC(=O)OCc3ccccc3)n2)cc1 [Compound 314, (S)-benzyl 1-(4-(4-methoxy-phenyl-carbamoyl)-thiazol-2-ylamino)-1-oxo-6-(sulfamoyl-amino)-hexan-2-ylcarbamate]",≤ 200 nM
6,"NS(=O)(=O)NCCCC[C@H](NC(=O)Cc1ccccc1)C(=O)Nc1nc(-c2ccccc2)cs1 [Compound 230a, (S)-2-(2-phenylacetamido)-N-(4-phenylthiazol-2-yl)-6-(sulfamoylamino)hexanamide]",≤ 200 nM
7,"NS(=O)(=O)NCCCCCC(=O)Nc1cccc(-c2ccccc2)c1 [Compound 4, N-(Biphenyl-3-yl)-6-(sulfamoylamino)hexanamide]",≤ 200 nM
8,"NS(=O)(=O)NCCCC[C@H](NC(=O)OCc1ccccc1)C(=O)Nc1nc(C(=O)Nc2ccccc2)cs1 [Compound 313, (S)-benzyl 1-oxo-1-(4-(phenyl-carbamoyl)-thiazol-2-ylamino)-6-(sulfamoyl-amino)-hexan-2-ylcarbamate]",≤ 200 nM
9,"NS(=O)(=O)NCCCC[C@H](NC(=O)OCc1ccccc1)C(=O)Nc1cccc2cccnc12 [Compound 55, (S)-benzyl 1-oxo-1-(quinolin-8-ylamino)-6-(sulfamoyl-amino)-hexan-2-ylcarbamate]",≤ 200 nM
10,"CCOC(=O)N[C@@H](CCCCNS(N)(=O)=O)C(=O)Nc1nc(-c2ccccc2)cs1 [Compound 252, (S)-ethyl 1-oxo-1-(4-phenylthiazol-2-ylamino)-6-(sulfamoylamino)hexan-2-ylcarbamate]",200 to 500 nM
11,"NS(=O)(=O)NCCCC[C@H](NC(=O)Nc1ccccc1)C(=O)Nc1cccc2cccnc12 [Compound 211, (S)-2-(3-phenyl-ureido)-N-(quinolin-8-yl)-6-(sulfa-moylamino)-hexanamide]",≤ 200 nM
12,"NS(=O)(=O)NCCCC[C@H](NC(=O)c1cccc2cccnc12)C(=O)Nc1cccc2cccnc12 [Compound 209, (S)-N-(1-oxo-1-(quinolin-8-ylamino)-6-(sulfamoyl-amino)hex-an-2-yl)-quinoline-8-carboxamide]",200 to 500 nM
13,"COc1ccc(-c2nc([C@H](CCCCNS(N)(=O)=O)NC(=O)OCc3ccccc3)c[nH]2)cc1 [Compound 327, (S)-benzyl 1-(2-(4-methoxyphenyl)-1H-imidazol-4-yl)-5-(sulfamoylamino)pentylcarbamate]",≤ 200 nM
14,"COc1ccc(S(=O)(=O)N[C@@H](CCCCNS(N)(=O)=O)C(=O)Nc2cccc3cccnc23)cc1OC [Compound 201, (S)-2-(3,4-dimethoxyphenylsulfonamido)-N-(quinolin-8-yl)-6-(sulfamoylamino)hexanamide]",200 to 500 nM
15,"NS(=O)(=O)NCCCC[C@H](NC(=O)OCc1ccccc1)C(=O)Nc1cccc(-c2ccccc2)c1 [Compound 310, (S)-benzyl 1-(biphenyl-3-ylamino)-1-oxo-6-(sulfamoyl-amino)-hexan-2-ylcarbamate]",≤ 200 nM
16,"Cc1ccc(-c2nc([C@H](CCCCNS(N)(=O)=O)NC(=O)OCc3ccccc3)c[nH]2)cc1 [Compound 348, (S)-benzyl 5-(sulfamoyl-amino)-1-(2-p-tolyl-1H-imidazol-4-yl)pentyl-carbamate]",200 to 500 nM

# — patent publication US20070293530A1, “SULFAMIDE AND SULFAMATE DERIVATIVES AS HISTONE DEACETYLASE INHIBITORS” (METHYLGENE INC., priority 2006, published 2007)
